According to patent EP0572494B1, “COMPOSITION FOR USE IN TRANSDERMAL ADMINISTRATION” (priority 1991, dated 1992):

How the values were obtained:
[1] = according to Gruber et al; cited from earlier work
[2] = Urinary ibuprofen after topical application to shaved dorsal skin; format: in vivo, Hooded Wistar rats; conditions: topically applied composition according to the invention
From the text: Four anesthetized Hooded Wistar rats were fitted with jugular and bladder catheters. […] Plastic covers were placed over the shaved area to prevent the animals ingesting the applied composition.
The animals were placed in metabolism cages and the urinary ibuprofin monitored.

[3] = Particle size distribution by microscopic examination; format: physicochemical
Procedure: For the purposes of this specification the particle size of the particles was determined by microscopic examination. It should be assumed that the particles are of a constant thickness. The surface area of each visible particle face should be determined, and the particle size calculated by calculating the square root of the visible surface area of each particle.
(§1) The particle size of the ibuprofen crystallites precipitated during the cooling and stirring of the above formulation was compared with that of the unreacted ibuprofen powder. The respective particle sizes were determined by microscopic examination. It was assumed that the crystals were of a constant thickness. The surface area of each crystal was then determined, and the particle size calculated by calculating the square root of the measured surface area. This value was then taken to be the length of side. The total area of the counted particles was measured and the sum of the areas of the different size ranges estimated as a percentage of the total. The results were: Table 1
as §1, with “crystals” for “ibuprofen crystallites precipitated during the cooling and stirring of the above formulation was compared with that of the unreacted ibuprofen powder. The respective particle sizes”

## CC(C)Cc1ccc(C(C)C(=O)O)cc1 (stereo not shown) [ibuprofen]
[1]
  solubility in water and conventional media: only sparingly soluble
[2]
  absorption kinetics: zero order kinetics
  time still being excreted after topical application: more than 160 hours

## O=C1O[C@H]([C@@H](O)CO)C(O)=C1O [Unformulated Ascorbic Acid, ascorbic acid]
[3]; size range 10-20µm
  Percentage Particles in Size range: 0.36 Percentage
[3]; size range 20-50µm
  Percentage Particles in Size range: 0.57 Percentage
[3]; size range 50-100µm
  Percentage Particles in Size range: 2.7 Percentage
[3]; size range >100µm
  Percentage Particles in Size range: 96 Percentage
